Experimental data taken from ChEMBL document CHEMBL1146837, “Effects of fluorine substitution of cytosine analogues on the binding affinity to HIV-1 reverse transcriptase” (Bioorg Med Chem Lett, 2004).

Assays:
Type in all cases: functional
[1] = target: Human immunodeficiency virus type 1 reverse transcriptase (Human immunodeficiency virus 1) (UniProt Q72547); test: Rate of incorporation into a DNA primer directed by a DNA template at the active site of HIV-1 reverse transcriptase
[2] = target: Human immunodeficiency virus type 1 reverse transcriptase (Human immunodeficiency virus 1) (UniProt Q72547); test: Efficiency of incorporation into a DNA primer directed by a DNA template at the active site of HIV-1 reverse transcriptase
[3] = target: Human immunodeficiency virus type 1 reverse transcriptase (Human immunodeficiency virus 1, UniProt Q72547); test: Equilibrium binding constant at the active site of HIV-1 reverse transcriptase

Row | Compound | Kpol [1] | Efficiency [2] | Kd [3]
1 | Nc1nc(=O)n([C@@H]2C=C[C@H](COP(=O)(O)OP(=O)(O)OP(=O)(O)O)O2)cc1F | 0.95 s⁻¹ | 0.031 µM⁻¹ s⁻¹ | 31 µM
2 | Nc1ccn([C@@H]2C=C[C@H](COP(=O)(O)OP(=O)(O)OP(=O)(O)O)O2)c(=O)n1 | 0.16 s⁻¹ | 0.0086 µM⁻¹ s⁻¹ | 18 µM
3 | Nc1nc(=O)n([C@H]2O[C@@H](COP(=O)(O)OP(=O)(O)OP(=O)(O)O)C=C2F)cc1F | 0.15 s⁻¹ | 0.0023 µM⁻¹ s⁻¹ | 64 µM

These reach a lower Kd [3]. Values come first.

Row | Kpol [1] | Efficiency [2] | Kd [3] | Compound
4 | 0.019 s⁻¹ | 0.0013 µM⁻¹ s⁻¹ | 15 µM | Nc1ccn([C@@H]2CS[C@H](COP(=O)(O)OP(=O)(O)OP(=O)(O)O)O2)c(=O)n1 [LAMIVUDINE TRIPHOSPHATE]
5 | 0.039 s⁻¹ | 0.0033 µM⁻¹ s⁻¹ | 12 µM | Nc1nc(=O)n([C@@H]2CS[C@H](COP(=O)(O)OP(=O)(O)OP(=O)(O)O)O2)cc1F [EMTRICITABINE 5'-TRIPHOSPHATE]
